The subject of the assay is P388 leukemia ip, CD2F1 mice, survival T/C. In words: NCI In Vivo Anticancer Drug Screen. Data for tumor model P388 Leukemia (intraperitoneal) in CD2F1 (CDF1) mice. To be noted: endpoint: median survival time, higher = longer survival. Put shortly:
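Mice carrying the transplanted tumor received test compound or vehicle. Survival was recorded in each group, and the value is the treated-group measurement divided by that of the vehicle-treated control group.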

Where [1] appears, read: dose: 50.0 mg/kg/injection, schedule: Q01DX009 (ip), vehicle: saline.
The mark [2] stands for this setting: dose: 50.0 mg/kg/injection, schedule: Q01DX005 (ip), vehicle: Klucel (hydroxypropylcellulose) (HPC).
[3] abbreviates: dose: 100.0 mg/kg/injection, schedule: Q01DX005 (ip), vehicle: Klucel (hydroxypropylcellulose) (HPC).
[4] abbreviates: dose: 200.0 mg/kg/injection, schedule: Q01DX005 (ip), vehicle: Klucel (hydroxypropylcellulose) (HPC).
Where [5] appears, read: dose: 50.0 mg/kg/injection, schedule: Q01DX009 (ip), vehicle: Klucel (hydroxypropylcellulose) (HPC).
Setting [6] is: dose: 100.0 mg/kg/injection, schedule: Q01DX009 (ip), vehicle: Klucel (hydroxypropylcellulose) (HPC).
The mark [7] stands for this setting: dose: 100.0 mg/kg/injection, schedule: Q01DX009 (ip), vehicle: saline.
[8] abbreviates: dose: 60.0 mg/kg/injection, schedule: Q01DX005 (ip), vehicle: Klucel (hydroxypropylcellulose) (HPC).
[9] abbreviates: dose: 120.0 mg/kg/injection, schedule: Q01DX005 (ip), vehicle: Klucel (hydroxypropylcellulose) (HPC).
[10] abbreviates: dose: 240.0 mg/kg/injection, schedule: Q01DX005 (ip), vehicle: Klucel (hydroxypropylcellulose) (HPC).
[11] abbreviates: dose: 50.0 mg/kg/injection, schedule: Q01DX005 (ip), vehicle: saline with Tween-80.
Where [12] appears, read: dose: 100.0 mg/kg/injection, schedule: Q01DX005 (ip), vehicle: saline with Tween-80.
The mark [13] stands for this setting: dose: 200.0 mg/kg/injection, schedule: Q01DX005 (ip), vehicle: saline with Tween-80.

Several values for one entry are separate records, joined by “and”; a condition that tells them apart may be missing. Equal entries are not always repeated. Toxic doses and inconclusive results are not listed.

With `COc1cc(NCCCCCCNC(C)C)c2ncccc2c1OC`, the T/C (dose: 1.56 mg/kg/injection, schedule: Q01DX005 (ip), vehicle: Klucel (hydroxypropylcellulose) (HPC)) was 99 % of control; the T/C (dose: 3.12 mg/kg/injection, schedule: Q01DX005 (ip), vehicle: Klucel (hydroxypropylcellulose) (HPC)) was 105 % of control; the T/C (dose: 6.25 mg/kg/injection, schedule: Q01DX005 (ip), vehicle: Klucel (hydroxypropylcellulose) (HPC)) is 105 % of control; the T/C (dose: 12.5 mg/kg/injection, schedule: Q01DX005 (ip), vehicle: Klucel (hydroxypropylcellulose) (HPC)) is 105 % of control.
As to `[Cl][Pd]([Cl])([Cl])[Cl]`, the T/C (dose: 12.5 mg/kg/injection, schedule: Q01DX009 (ip), vehicle: saline) is 86 % of control; the T/C (dose: 25.0 mg/kg/injection, schedule: Q01DX009 (ip), vehicle: saline) is 96 % of control; the T/C under setting [1] was 95 % of control.
For the molecule `COc1c(OC)c(OC)c(-c2cc(=O)c3c(OC)c(OC)c(OC)c(OC)c3o2)c(OC)c1OC`, the T/C was 94 % of control under setting [2], 88 % of control under setting [3] and 91 % of control under setting [4].
For `O=[N+]([O-])c1ccccc1N=NNc1ccccc1`, the T/C is 95 % of control under setting [5]; 91 % of control under setting [6]; 104 % of control (dose: 200.0 mg/kg/injection, schedule: Q01DX009 (ip), vehicle: Klucel (hydroxypropylcellulose) (HPC)).
Consider `CC(C)(CC(=O)OCCO)c1cc(CC(C)(C)c2cc(CC(C)(C)c3cc(CC(C)(C)C4(C)OCCO4)no3)no2)no1`, for which the T/C by setting is: (dose: 100.0 mg/kg/injection, schedule: Q04DX002 (ip), vehicle: saline with Tween-80) 88 % of control; (dose: 200.0 mg/kg/injection, schedule: Q04DX002 (ip), vehicle: saline with Tween-80) 87 % of control; (dose: 400.0 mg/kg/injection, schedule: Q04DX002 (ip), vehicle: saline with Tween-80) 87 % of control.
With `O=C1SC/C(=N\N=c2/scc(-c3ccccc3)n2-c2ccc(Br)cc2)N1Cc1ccccc1`, the T/C reads like this: (dose: 100.0 mg/kg/injection, schedule: Q04DX002 (ip), vehicle: Klucel (hydroxypropylcellulose) (HPC)) 86 % of control; (dose: 200.0 mg/kg/injection, schedule: Q04DX002 (ip), vehicle: Klucel (hydroxypropylcellulose) (HPC)) 91 % of control.
As to `CC(NC(=O)C(CO)NC(=O)c1cnc2ccccc2n1)C(=O)OC(C)(C)C` (stereo unspecified), the T/C (dose: 60.0 mg/kg/injection, schedule: Q01DX005 (ip), vehicle: DMSO) is 98 % of control; the T/C (dose: 120.0 mg/kg/injection, schedule: Q01DX005 (ip), vehicle: DMSO) was 99 % of control; the T/C (dose: 240.0 mg/kg/injection, schedule: Q01DX005 (ip), vehicle: DMSO) is 109 % of control.
With `Cc1ccc(Nc2n[nH]c(=S)s2)cc1C`, the T/C is, setting by setting: (dose: 100.0 mg/kg/injection, schedule: Q04DX003 (ip), vehicle: saline with Tween-80) 90 % of control; (dose: 200.0 mg/kg/injection, schedule: Q04DX003 (ip), vehicle: saline with Tween-80) 90 % of control; (dose: 400.0 mg/kg/injection, schedule: Q04DX003 (ip), vehicle: saline with Tween-80) 95 % of control.
As for `CC(=O)OC1CCC(C2CCCCC2)CC1` (stereo unspecified), the T/C runs as follows: under setting [7], 102 % of control; (dose: 200.0 mg/kg/injection, schedule: Q01DX009 (ip), vehicle: saline) 97 % of control; (dose: 400.0 mg/kg/injection, schedule: Q01DX009 (ip), vehicle: saline) 101 % of control.
Consider `Cc1ccc2c(c1)sc1nnc(S(C)(=O)=O)n12`, for which the T/C was 118 % of control (dose: 12.5 mg/kg/injection, schedule: Q01DX009 (ip), vehicle: Klucel (hydroxypropylcellulose) (HPC)); 110 % of control (dose: 25.0 mg/kg/injection, schedule: Q01DX009 (ip), vehicle: Klucel (hydroxypropylcellulose) (HPC)); 102 % of control and 118 % of control under setting [5]; 111 % of control under setting [6].
Turning to `O=C(CO)C1CC2CCC1C2` (stereo unspecified), the T/C is, setting by setting: under setting [8], 101 % of control; under setting [9], 101 % of control; under setting [10], 99 % of control.
Consider `CNc1ccc(Cl)cc1SSc1cc(Cl)ccc1NC`, for which the T/C runs as follows: (dose: 50.0 mg/kg/injection, schedule: Q01DX001 (ip), vehicle: Klucel (hydroxypropylcellulose) (HPC)) 100 % of control; (dose: 100.0 mg/kg/injection, schedule: Q01DX001 (ip), vehicle: Klucel (hydroxypropylcellulose) (HPC)) 100 % of control; (dose: 200.0 mg/kg/injection, schedule: Q01DX001 (ip), vehicle: Klucel (hydroxypropylcellulose) (HPC)) 100 % of control.
Consider `Oc1ccccc1/C=N/Nc1ccc2ccccc2n1`, for which the T/C runs as follows: (dose: 25.0 mg/kg/injection, schedule: Q04DX003 (ip), vehicle: saline) 96 % of control; (dose: 50.0 mg/kg/injection, schedule: Q04DX003 (ip), vehicle: saline) 95 % of control; (dose: 100.0 mg/kg/injection, schedule: Q04DX003 (ip), vehicle: saline) 102 % of control; (dose: 200.0 mg/kg/injection, schedule: Q04DX003 (ip), vehicle: saline) 93 % of control.
Turning to `O=C(O)Cc1sc(-c2ccccc2)nc1-c1ccc(Cl)cc1`, the T/C was 114 % of control (dose: 50.0 mg/kg/injection, schedule: Q01DX009 (ip), vehicle: saline with Tween-80); 110 % of control (dose: 100.0 mg/kg/injection, schedule: Q01DX009 (ip), vehicle: saline with Tween-80); 112 % of control (dose: 200.0 mg/kg/injection, schedule: Q01DX009 (ip), vehicle: saline with Tween-80).
In the case of `CCN(SSN(CC)S(=O)(=O)c1ccc(C)cc1)S(=O)(=O)c1ccc(C)cc1`, the T/C was 106 % of control under setting [11], 107 % of control under setting [12] and 110 % of control under setting [13].
On to `C1CN1P1(N2CC2)=NP(N2CC2)(N2CC2)=NP(N2CC2)(N2CC2)=NP(N2CC2)(N2CC2)=N1`, for which the T/C is, setting by setting: (dose: 5.0 mg/kg/injection, schedule: Q01DX009 (ip), vehicle: saline) 195 % of control; (dose: 10.0 mg/kg/injection, schedule: Q01DX009 (ip), vehicle: saline) 222 % of control.
In the case of `C/C=C(/C)C(=O)OC1CC(C)=CC(OC(=O)/C(C)=C\C)[C@]2(C)C1[C@](O)(C(C)C)C[C@H]2O` (stereo partly specified), the T/C (dose: 2.0 mg/kg/injection, schedule: Q01DX005 (ip), vehicle: Klucel (hydroxypropylcellulose) (HPC)) is 106 % of control; the T/C (dose: 4.0 mg/kg/injection, schedule: Q01DX005 (ip), vehicle: Klucel (hydroxypropylcellulose) (HPC)) is 96 % of control; the T/C (dose: 8.0 mg/kg/injection, schedule: Q01DX005 (ip), vehicle: Klucel (hydroxypropylcellulose) (HPC)) is 99 % of control; the T/C (dose: 16.0 mg/kg/injection, schedule: Q01DX005 (ip), vehicle: Klucel (hydroxypropylcellulose) (HPC)) is 99 % of control.
As for `COc1cc(CCC(C)=O)ccc1OC(=O)c1c(-c2c(F)cccc2Cl)noc1C`, the T/C is, setting by setting: under setting [2], 91 % of control; under setting [3], 91 % of control; under setting [4], 91 % of control.
Turning to `O=C1CS(=O)(=O)C(c2ccccc2)N1N1C(=O)CS(=O)(=O)C1c1ccccc1` (stereo unspecified), the T/C under setting [11] is 104 % of control, the T/C under setting [12] was 104 % of control and the T/C under setting [13] is 92 % of control.
Turning to `O=C1Nc2ccccc2C(=O)C1(O)c1ccccc1` (stereo unspecified), the T/C was 105 % of control under setting [8], 103 % of control under setting [9] and 94 % of control under setting [10].
In the case of `CCCCCNS(=O)(=O)c1ccc(C)cc1`, the T/C reads like this: (dose: 50.0 mg/kg/injection, schedule: Q01DX009 (ip), vehicle: saline + alcohol) 107 % of control; (dose: 100.0 mg/kg/injection, schedule: Q01DX009 (ip), vehicle: saline + alcohol) 107 % of control; (dose: 200.0 mg/kg/injection, schedule: Q01DX009 (ip), vehicle: saline + alcohol) 118 % of control; (dose: 400.0 mg/kg/injection, schedule: Q01DX009 (ip), vehicle: saline + alcohol) 101 % of control.
As for `OCCOCCN1CCN(C(c2ccccc2)c2ccccc2)CC1`, the T/C by setting is: under setting [1], 103 % of control; under setting [7], 103 % of control.
On to `N#CC1Sc2ccccc2N1C(=O)Oc1ccccc1` (stereo unspecified), for which the T/C (dose: 60.0 mg/kg/injection, schedule: Q01DX005 (ip), vehicle: saline with Tween-80) was 102 % of control; the T/C (dose: 120.0 mg/kg/injection, schedule: Q01DX005 (ip), vehicle: saline with Tween-80) was 106 % of control; the T/C (dose: 240.0 mg/kg/injection, schedule: Q01DX005 (ip), vehicle: saline with Tween-80) was 106 % of control.

(Values after PubChem BioAssay AID330 (DTP/NCI, 2004).)
